Tests used:
[1] = cited from earlier work
skin of older probands = test: Regular topical application of ascorbic acid to the skin of older probands (confocal microscopy in vivo)
Description: Status and changes of the microcapillary system and the rete peg pattern can be shown, followed, and quantified on probands quickly (in minutes) by means of modern techniques, such as confocal microscopy in vivo—i.e., free of injury, repeatedly as often as desired, and with dynamic responses to actual influences—both with respect to the density of the rete pegs or microcapillaries (number per surface unit) and with respect to their height, which makes it possible to estimate the size of the exchange surface.

## O=C1O[C@H]([C@@H](O)CO)C(O)=C1O [ascorbic acid]
[1]; heat
  stability to heat: sensitive to heat
[1]; pure, dry state, light, air, heat
  stability in a pure, dry state: relatively resistant to light, air, and heat
[1]; traces of heavy metal, alkaline environment, air and atmospheric oxygen
  stability in the presence of traces of heavy metal and in an alkaline environment: decomposes
Skin of older probands
  density of rete pegs and microcapillaries: reversibly increased to the extent of youthful skin
  elasticity parameters of the skin (formation of suction blisters): improvement
  moisture content and roughness of the horny layer: improvement

From patent publication US20050032888A1 (priority 2001, published 2005)
